Measurements from US5589364A, “Recombinant production of biologically active peptides and proteins” (priority 1994, dated 1996).
Ends that are not written are not given here.

Tests used:
[1] = test system: reference strains Staphylococcus aureus ATCC 29213, Escherichia coli ATCC 25922, and Pseudomonas aeruginosa ATCC 27853; assay: Antimicrobial susceptibility assay as in Example 1, organism not specified per result; format: cell-based
Experimental: Antibacterial susceptibility testing was performed using a microdilution broth assay according to the guidelines of the National Committee for Clinical Laboratory Standards (NCCLS) Document M7-A2 (NCCLS, 1990). For preparation of peptide stock solutions, the peptide powder as an acetate salt was weighed on an analytical balance and transferred to a polypropylene tube. Stock solutions were prepared at a concentration of 1.024 mg/mL (or, in the case of natural polyphemusin, 1.00 mg/mL) by dissolving the powder in autoclaved (121° C., 20 psi, 20 minutes) deionized water. […]
The bacteria used in the antimicrobial susceptibility testing are the quality control reference strains Staphylococcus aureus ATCC 29213, Escherichia coli ATCC 25922, and Pseudomonas aeruginosa ATCC 27853. Inoculum for each reference strain was prepared by taking a sample of bacteria from a 16-20 hour plate culture and inoculating into 5 mL of MHB (BBL® catalog number 95834) to an absorbance reading of approximately 0.02 at 600 nm (A600) on a Beckman DU®-64 spectrophotometer. The culture was incubated at 35°-37° C. with shaking in a New Brunswick incubator shaker (Model G25) and the growth monitored spectrophotometrically until it reached A600 of approximately 0.6; this absorbance represented approximately 1×10^8 colony-forming units per milliliter (CFUs/mL). […]
This value was determined using the unaided eye. […]

[2] = test system: E. coli ATCC strain 25922; assay: Bacterial growth inhibition assay, aliquots spotted onto a bacterial lawn; format: cell-based, Escherichia coli; details: purified recombinant peptide at 0.4 ug/mL; half-strength trypticase soy broth agar with 50 mM sodium fluoride
Experimental: Small aliquots of recombinant MSI-556 and other HPLC fractions from the CNBr digest of MBP-MSI-556 fusion protein were spotted onto a lawn of E. coli ATCC strain 25922 grown on a half-strength trypticase soy broth agar plate containing 50 mM sodium fluoride.

[3] = test system: Pseudomonas aeruginosa ATCC 27853; assay: Microdilution broth antibacterial susceptibility assay (NCCLS M7-A2), MIC; format: cell-based; details: lowest concentration completely inhibiting growth; MHB, 16-20 hours, 35-37 C; tested in duplicate
Experimental: (§1) Antibacterial susceptibility testing was performed using a microdilution broth assay according to the guidelines of the National Committee for Clinical Laboratory Standards (NCCLS) Document M7-A2 (NCCLS, 1990). For preparation of peptide stock solutions, the peptide powder as an acetate salt was weighed on an analytical balance and transferred to a polypropylene tube. Stock solutions were prepared at a concentration of 1.024 mg/mL (or, in the case of natural polyphemusin, 1.00 mg/mL) by dissolving the powder in autoclaved (121° C., 20 psi, 20 minutes) deionized water. The peptide solution was used immediately, stored for up to ten days at 4° C., or stored longterm at -70° C. in 1 mL aliquotes in polypropylene cryovials. Mueller-Hinton broth (MHB)(BBL® catalog number 11443) was used in microtiter plates for diluting peptide stock solutions and for diluting each bacterial inoculum. MHB 5 mL prepared tubes (BBL® catalog number 95834) were used to culture an overnight plate of bacteria to the logarithmic phase of growth for inoculating the microtiter plates.
(§2) The bacteria used in the antimicrobial susceptibility testing are the quality control reference strains Staphylococcus aureus ATCC 29213, Escherichia coli ATCC 25922, and Pseudomonas aeruginosa ATCC 27853. Inoculum for each reference strain was prepared by taking a sample of bacteria from a 16-20 hour plate culture and inoculating into 5 mL of MHB (BBL® catalog number 95834) to an absorbance reading of approximately 0.02 at 600 nm (A600) on a Beckman DU®-64 spectrophotometer. The culture was incubated at 35°-37° C. with shaking in a New Brunswick incubator shaker (Model G25) and the growth monitored spectrophotometrically until it reached A600 of approximately 0.6; this absorbance represented approximately 1×10^8 colony-forming units per milliliter (CFUs/mL).
(§3) The culture was then diluted to approximately 1×10^6 CFUs/mL in autoclaved MHB (BBL® catalog number 11443) to produce the parent inoculum. A sample of the parent inoculating culture was diluted in 3 mM phosphate buffer (pH 7.2) through a series of 1:10 dilutions and the 10^-4 and 10^-5 dilutions were plated, incubated overnight at 35°-37° C., and counted the next day to verify inoculum density. Microtiter plates (Corning manufacturer number 2585096) were prepared with the use of a Beckman Biomek® 1000 automated laboratory workstation in combination with manual techniques. The microtiter plate was filled with diluent broth using the Biomek® 1000 instrument. Peptide stock solution was manually added to the top drug well of the microtiter plate using a Rainin Pipetman®, Model P-200. The peptide was serially diluted in twofold dilutions using the Biomek® 1000 instrument. One hundred microliters of the standardized bacterial inoculum was added to every well of the microtiter plates (except the blanks) using an Eppendorf Repeater® Model 4780 pipet equipped with an Eppendorf 5 mL combitip (catalog number 22 26 130-4). All peptides were tested in duplicate. In addition to the test peptide, three standard peptides (Magainin 2, MSI-63, and MSI-98) and a non-treated growth control were included to validate the assay. The final concentrations of peptide solution in the microtiter wells ranged from 0.25 ug/mL to 256 ug/mL. The final concentration of bacteria in the microtiter wells was 1-5×10^5 CFUs/mL. The final solution volume in each well was 200 uL. The microtiter plates were incubated overnight (16-20 hours) at 35°-37° C. after preparation in a Precision mechanical convection oven incubator Model 30M.
(§4) This value was determined using the unaided eye. In addition, for a permanent record, the absorbance at 630 nm was read on a Dynatech MR5000 Microplate Reader, Version 2.7, and a printed record was generated on an Epson LX800 dot-matrix printer.

[4] = test system: Escherichia coli ATCC 25922; assay: as above; format: cell-based; details: lowest concentration completely inhibiting growth; MHB, 16-20 hours, 35-37 C; tested in duplicate
Experimental: as §1, §2, §3, §4

[5] = test system: Staphylococcus aureus ATCC 29213; assay: as above; format: cell-based; details: lowest concentration completely inhibiting growth; MHB, 16-20 hours, 35-37 C; tested in duplicate
Experimental: as §1, §2, §3, §4

Substance | Spectrum of antibacterial activity (summary of Table I) ([1]; unamidated peptides, conclusion from MIC values) | Bacterial lawn growth inhibition as judged visually [2] | Minimum Inhibitory Concentration, Test Organism: Pseudo. aeruginosa [3] | Minimum Inhibitory Concentration, Test Organism: E. coli [4] | Minimum Inhibitory Concentration, Test Organism: Staph. aureus [5] | Bioactivity in antimicrobial susceptibility assay ([1]; HPLC-purified recombinant peptide, without reformation of the two disulfide bridges)
NH2 --GIGKFLKKAKKFGKAGVKILKKG--OH [MSI-556] | broadly active against both gram-negative and gram-positive human pathogenic bacteria | significant antimicrobial activity | 4 µg/mL | 4 to 16 µg/mL | 16 µg/mL | –
NH2 --RRWCFRVCYRGFCYRKCRG--OH (H-RRWCFRVCYRGFCYRKCRG-OH; cysteine pairing not given here) [Lim1] | – | – | – | – | – | bioactive
GIGKFLKKAKKFGKAFVKILKK-NH2 [MSI-78] | – | – | 4 to 8 µg/mL | 8 µg/mL | 8 to 16 µg/mL | –
GIGKFLHSAKKFGKAFVGEIMNS [Native Magainin 2, reference compound] | – | – | 256 µg/mL | 64 to 128 µg/mL | 256 µg/mL | –
